# Measured values published in patent EP0298064A2, “Birth control and diagnostic methods” (BIOCARB AB, priority 1987, dated 1989).
# Experiments:
# 667/9E9 = assay: Inhibition by oligosaccharide of 667/9E9 staining of endometrial sections; type: binding, mice; conditions: day 4 and 5 sections; addition of 1 mM
# Procedure: Fixed or unfixed sections were hydrated in Dulbecco's phosphate buffer pH 7.2, containing 0.1% Bovine serum albumin and 0.05% Tween 20. All antibodies and sera were diluted in the same buffer. The sections were incubated for 30 minutes in a 1/20 dilution of normal non immune goat serum […] to prevent nonspecific binding. Monoclonal antibody supernatants were diluted to either 1/10 or 1/20. The sections were overlayered with 50 µl of the primary antibody and incubated overnight in a humidified atmosphere at 4°C. Following this the sections were rinsed 4 times in the buffer and again incubated for 30 minutes in 1/20 normal goat serum. They were then stained with the second antibody, a fluorescein isothiocyanate (FITC) conjugated goat anti-mouse IgM at a final dilution of 1/80. The sections were finally rinsed in the buffer and mounted in 2.5% DABCO (Boehringer Mannheim, Germany) in 80% glycerol.
# [1] = test system: blastocyst implantation in murine endometrial epithelium monolayers; assay: In vitro implantation - mouse model (blastocysts co-cultured with endometrial monolayer); type: cell-based; conditions: for Test impl/total (no. of blastocysts implanting/total no. of blastocysts added to the culture): test medium supplemented with 0.1 mM test oligosaccharide, control medium values stand in the neighbouring column
# Procedure: In the mouse in vitro implantation system blastocyst implantation in murine endometrial epithelium monolayers was compared in 2 different media: the control medium (i.e. a medium which had supported more than 80% murine blastocyst formation from 2-cell embryos within 72 hours) and test medium (i.e. identical with the control medium except supplemented with 0.1 mM test oligosaccharide).
# As control medium we used Earle's minimum essential medium (MEM) (Flow Lab), supplemented with penicillin-G 0.0075 g/l, streptomycin 0.075 g/l, glutamine 1 mM, fetal calf serum 5% and a vegetable protein source 2% (Ultrose-G, LKB, 2216-100). The final osmolality was adjusted to 285 mOsmol/kg and a pH of 7.4.
# The mice were F1 hybrid B6D2F1/Bom (from the Laboratory of Animal Breeding and Research Center, Gl.Bomholdt Gȧrd, LTv., 8680 Ry, Denmark). Females aged 26 days and weighing 13-18 g and mature 6 months old males of previously proven fertility were used. They were housed in air-conditioned quarters with pelleted food and water available ad libitum and light between 7.30 a.m. and 7.30 p.m.
# The female mice were superovulated with 5 I.U. FSH/LH (Antex, Leo Pharmaceuticals, Denmark) injected intraperitoneally at 9 a.m. day 1. 48 hours later (on day 3), ovulation was induced with 2.5 I.U. HCG. They were caged with males at 1 p.m. and left overnight. Mating was confirmed on the morning of day 4 by the presence of a vaginal plug.
# Females were sacrificed at 9 a.m. on day 5. The oviducts were isolated and the 2-cell embryos flushed from the tubes using hand drawn glass pipettes.
# Handling the 2-cells embryos outside the CO₂ incubator was carried out in the control medium supplemented with a HEPES buffer 20 mM (Flow Lab. 16-884-49).
# After the oviducts were collected, the uterus of each mouse was isolated. The uterus was opened longitudinally and scraped with a rubber policeman on the uterine epithelial surface to col lect endometrial cells. These cells were handled in the HEPES buffered control medium as well. […]
# implantation = assay: In vivo inhibition of implantation in the mouse (intrauterine injection); design: species or system NMRI mice
# Procedure: In this study the effect of structure A, injected into the uteri of naturally mated and unstimulated mice, was investigated.
# 10 weeks old NMRI mice were caged with NMRI males of previously proven fertility.
# At plug day 4 (at 1 p.m.) the mice were anaestezed using mebumal. The abdomen was opened through a midline incision and the genital tract was identified. A 6-0 selk sutur was placed around the vaginal top intraperitoneally. 5µl of Earle's balanced salt solution (EBS) supplemented with 5 mmol/l of structure A or unsupplemented were injected into the uterine horns. The test group contained 20 mice who were injected with supplemented media containing structure A, where as the controls (15 mice) were injected with EBS unsupplemented medium.
Compound,inhibition of the staining of the endometrial sections by 667/9E9 (667/9E9),inhibition of implantation of mouse embryos (in words) ([1]; oligosaccharide concentration of 0.1 mM),Test impl/total (no. of blastocysts implanting/total no. of blastocysts added to the culture) [1],"inhibition of implantation in vivo (in words) (implantation; 5 mmol/l, 5µl into the uterine horns)","Impl/horn (implantation; 5µl EBS with 5 mmol/l injected into the uterine horns at plug day 4, 20 mice, controls 4.2)"
CC(=O)N[C@H]1[C@H](O[C@H]2[C@@H](O)[C@@H](CO)O[C@@H](O[C@H]3[C@H](O)[C@@H](O)C(O)O[C@@H]3CO)[C@@H]2O)O[C@H](CO)[C@@H](O)[C@@H]1O[C@@H]1O[C@H](CO)[C@H](O)[C@H](O)[C@H]1O[C@@H]1O[C@@H](C)[C@@H](O)[C@@H](O)[C@@H]1O (stereo partly drawn) [structure A],could be inhibited,inhibits the implantation of mouse embryos,134/228,inhibits implantation in vivo in the mouse,1.15
"CC(=O)N[C@H]1[C@H](O[C@H]2[C@@H](O)[C@@H](CO)O[C@@H](O[C@H]3[C@H](O)[C@@H](O)C(O)O[C@@H]3CO)[C@@H]2O)O[C@H](CO)[C@@H](O)[C@@H]1O[C@@H]1O[C@H](CO)[C@H](O)[C@H](O)[C@H]1O (stereo partly drawn) [structure B, reference compound]",,,92/129,,
